According to patent US20070117743A1, “New antitumoral compounds” (priority 2003, published 2007):
Where a SMILES comes first, the peptide text is derived from it. Bridges are numbered along the chain shown (N, C = ends). [ ]: non-standard residue; d: D form. The star is where a group is joined. d(aIle) = CC[C@H](C)[C@@H](N)C(=O)O; d(aThr) = C[C@@H](O)[C@@H](N)C(=O)O; Hexanoyl(5-Me) = CC(C)CCCC(=O)*; Orn = NCCC[C@H](N)C(=O)O; Dhb = C/C=C(\N)C(=O)O

Key:
Assay type in all cases: cell-based, human
HeLa-APL = test: SRB colorimetric assay of cell growth and viability, HeLa-APL; conditions: HELA-APL, 48 hours exposure; for CC50: read-out: LC50 HELA-APL
K-562 = test: SRB colorimetric assay of cell growth and viability, K-562; conditions: K-562, 48 hours exposure; for CC50: read-out: LC50 K-562
LoVo-Dox = test: SRB colorimetric assay of cell growth and viability, LoVo-Dox; conditions: LOVO-DOX, 48 hours exposure; for CC50: read-out: LC50 LOVO-DOX
How it was run: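 First, 5×10^3 cells per well attach for 18 hours in RPMI 1640 with 10% FBS at 37° C and 5% CO2. Next, samples spanning 10 to 10^−8 μg/mL are added for 48 hours. Finally, cells are fixed with TCA, stained with SRB for 10 minutes and read at 490 nm.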

PANC-1 = test: SRB colorimetric assay of cell growth and viability, PANC-1; conditions: PANC-1, 48 hours exposure; for CC50: read-out: LC50 PANC-1
SK-BR-3 = test: SRB colorimetric assay of cell growth and viability, SK-BR-3; conditions: SK-BR-3; 48 hours exposure
IGROV-ET = test: SRB colorimetric assay of cell growth and viability, IGROV-ET; conditions: IGROV-ET, 48 hours exposure; for CC50: read-out: LC50 IGROV-ET
IGROV-1 = test: SRB colorimetric assay of cell growth and viability, IGROV-1; conditions: IGROV; 48 hours exposure
HeLa = test: SRB colorimetric assay of cell growth and viability, HeLa; conditions: HELA, 48 hours exposure; for CC50: read-out: LC50 HELA
LNCaP = test: SRB colorimetric assay of cell growth and viability, LNCaP; conditions: LN-caP, 48 hours exposure; for CC50: read-out: LC50 LN-caP
A-549 = test: SRB colorimetric assay of cell growth and viability, A-549; conditions: A-549, 48 hours exposure; for GI50: read-out: GI50 A-549; for CC50: read-out: LC50 A-549
SK-MEL-28 = test: SRB colorimetric assay of cell growth and viability, SK-MEL-28; conditions: MEL-28, 48 hours exposure; for CC50: read-out: LC50 MEL-28
DU-145 = test: SRB colorimetric assay of cell growth and viability, DU-145; conditions: DU-145; 48 hours exposure
HT-29 = test: SRB colorimetric assay of cell growth and viability, HT-29; conditions: HT-29, 48 hours exposure; for GI50: read-out: GI50 HT-29; for CC50: read-out: LC50 HT-29

| SMILES | GI50 (HeLa-APL) | TGI HELA-APL (HeLa-APL) | CC50 (HeLa-APL) | GI50 (K-562) | TGI K-562 (K-562) | CC50 (K-562) | GI50 (LoVo-Dox) | TGI LOVO-DOX (LoVo-Dox) | CC50 (LoVo-Dox) | GI50 (PANC-1) | TGI PANC-1 (PANC-1) | CC50 (PANC-1) | GI50 (SK-BR-3) | LC50 (SK-BR-3) | TGI SK-BR-3 (SK-BR-3) | GI50 (IGROV-ET) | TGI IGROV-ET (IGROV-ET) | CC50 (IGROV-ET) | GI50 (IGROV-1) | LC50 (concentration causing 50% net cell killing) (IGROV-1) | further results |
| --- | --- | --- | --- | --- | --- | --- | --- | --- | --- | --- | --- | --- | --- | --- | --- | --- | --- | --- | --- | --- | --- |
| C/C=C1\NC(=O)[C@H](Cc2ccccc2)NC(=O)[C@@H](C(C)C)NC(=O)[C@@H]([C@@H](C)CC)NC(=O)[C@H](NC(=O)[C@H](NC(=O)[C@H](CCCN)NC(=O)[C@H]2CCCN2C(=O)[C@H](NC(=O)[C@@H](NC(=O)CNC(=O)[C@H](NC(=O)CCCC(C)C)C(C)C)C(C)C)C(C)C)[C@@H](C)CC)[C@@H](C)OC(=O)[C@H](C(C)C)NC1=O [Compound 111, [Gly^12]-KF] ({Hexanoyl(5-Me)}-[dV]GV[dV][dP][Orn][d(aIle)][d(aThr)][d(aIle)][dV]F[Dhb]V; ester 8-C) | 0.355 µM | 1.21E−06 Molar | 3.51 µM | 0.144 µM | 3.66E−07 Molar | 2.06 µM | 0.324 µM | 1.24E−06 Molar | 4.39 µM | 0.453 µM | 1.71E−06 Molar | 5.81 µM | 0.41 µM | 5.94 µM | 1.54E−06 Molar | 0.264 µM | 1.00E−06 Molar | 6.97 µM | 0.167 µM | 1.33 µM | TGI IGROV (IGROV-1): 3.72E−07 Molar; GI50 (HeLa): 1.26 µM; TGI HELA (HeLa): 2.94E−06 Molar; CC50 (HeLa): 6.86 µM; GI50 (LNCaP): 0.4 µM; TGI LN-caP (LNCaP): 6.97E−06 Molar; CC50 (LNCaP): 6.97 µM; TGI A-549 (A-549): 2.59E−06 Molar; GI50 (A-549): 1.09 µM; CC50 (A-549): 6.16 µM; GI50 (SK-MEL-28): 0.25 µM; TGI MEL-28 (SK-MEL-28): 6.31E−07 Molar; CC50 (SK-MEL-28): 2.9 µM; GI50 (DU-145): 0.725 µM; LC50 (concentration causing 50% net cell kill) (DU-145): 6.97 µM; TGI DU-145 (DU-145): 2.53E−06 Molar; TGI HT-29 (HT-29): 2.59E−06 Molar; GI50 (HT-29): 0.511 µM; CC50 (HT-29): 6.97 µM |
| C/C=C1\NC(=O)[C@H](Cc2ccccc2)NC(=O)[C@@H](C(C)C)NC(=O)[C@@H]([C@@H](C)CC)NC(=O)[C@H](NC(=O)[C@H](NC(=O)[C@H](CCCN)NC(=O)[C@H]2CCCN2C(=O)[C@H](NC(=O)[C@@H](NC(=O)[C@H](C)NC(=O)[C@H](NC(=O)CCCC(C)C)C(C)C)C(C)C)C(C)C)[C@@H](C)CC)[C@@H](C)OC(=O)[C@H](C(C)C)NC1=O [Compound 112, [Ala^12]-KF] ({Hexanoyl(5-Me)}-[dV]AV[dV][dP][Orn][d(aIle)][d(aThr)][d(aIle)][dV]F[Dhb]V; ester 8-C) | 1.42 µM | 2.85E−06 Molar | 5.75 µM | 2.79 µM | 5.62E−06 Molar | 6.91 µM | 1.11 µM | 2.76E−06 Molar | 6.85 µM | 1.91 µM | 5.43E−06 Molar | 6.91 µM | 3.97 µM | 6.91 µM | 5.84E−06 Molar | 1.51 µM | 3.44E−06 Molar | 6.91 µM | 1.31 µM | 6.91 µM | TGI IGROV (IGROV-1): 3.09E−06 Molar; GI50 (HeLa): 0.739 µM; TGI HELA (HeLa): 2.41E−06 Molar; CC50 (HeLa): 6.91 µM; GI50 (LNCaP): 1.19 µM; TGI LN-caP (LNCaP): 2.64E−06 Molar; CC50 (LNCaP): 5.85 µM; TGI A-549 (A-549): 2.87E−06 Molar; GI50 (A-549): 1.45 µM; CC50 (A-549): 5.64 µM; GI50 (SK-MEL-28): 1.39 µM; TGI MEL-28 (SK-MEL-28): 2.74E−06 Molar; CC50 (SK-MEL-28): 5.43 µM; GI50 (DU-145): 1.34 µM; LC50 (concentration causing 50% net cell kill) (DU-145): 5.91 µM; TGI DU-145 (DU-145): 2.82E−06 Molar; TGI HT-29 (HT-29): 2.26E−06 Molar; GI50 (HT-29): 1.15 µM; CC50 (HT-29): 4.45 µM |
| C/C=C1\NC(=O)[C@H](Cc2ccccc2)NC(=O)[C@@H](C(C)C)NC(=O)[C@@H]([C@@H](C)CC)NC(=O)[C@H](NC(=O)[C@H](NC(=O)[C@H](CCCN)NC(=O)[C@H]2CCCN2C(=O)[C@H](NC(=O)[C@@H](NC(=O)[C@H](CC(C)C)NC(=O)[C@H](NC(=O)CCCC(C)C)C(C)C)C(C)C)C(C)C)[C@@H](C)CC)[C@@H](C)OC(=O)[C@H](C(C)C)NC1=O [Compound 113, [Leu^12]-KF] ({Hexanoyl(5-Me)}-[dV]LV[dV][dP][Orn][d(aIle)][d(aThr)][d(aIle)][dV]F[Dhb]V; ester 8-C) | 1.19 µM | 2.59E−06 Molar | 5.66 µM | 1.84 µM | 3.24E−06 Molar | 5.72 µM | 0.226 µM | 6.11E−07 Molar | 6.71 µM | 1.82 µM | 4.89E−06 Molar | 6.71 µM | 0.292 µM | 6.71 µM | 6.13E−07 Molar | 0.926 µM | 2.48E−06 Molar | 6.62 µM | 0.415 µM | 6.71 µM | TGI IGROV (IGROV-1): 1.70E−06 Molar; GI50 (HeLa): 0.191 µM; TGI HELA (HeLa): 4.95E−07 Molar; CC50 (HeLa): 5.79 µM; GI50 (LNCaP): 0.906 µM; TGI LN-caP (LNCaP): 2.20E−06 Molar; CC50 (LNCaP): 5.32 µM; TGI A-549 (A-549): 2.95E−06 Molar; GI50 (A-549): 1.44 µM; CC50 (A-549): 6.04 µM; GI50 (SK-MEL-28): 1.42 µM; TGI MEL-28 (SK-MEL-28): 2.77E−06 Molar; CC50 (SK-MEL-28): 5.37 µM; GI50 (DU-145): 0.906 µM; LC50 (concentration causing 50% net cell kill) (DU-145): 5.09 µM; TGI DU-145 (DU-145): 2.14E−06 Molar; TGI HT-29 (HT-29): 1.76E−06 Molar; GI50 (HT-29): 0.691 µM; CC50 (HT-29): 4.5 µM |
| C/C=C1\NC(=O)[C@H](Cc2ccccc2)NC(=O)[C@@H](C(C)C)NC(=O)[C@@H]([C@@H](C)CC)NC(=O)[C@H](NC(=O)[C@H](NC(=O)[C@H](CCCN)NC(=O)[C@H]2CCCN2C(=O)[C@H](NC(=O)[C@@H](NC(=O)[C@H](Cc2ccccc2)NC(=O)[C@H](NC(=O)CCCC(C)C)C(C)C)C(C)C)C(C)C)[C@@H](C)CC)[C@@H](C)OC(=O)[C@H](C(C)C)NC1=O [Compound 114, [Phe^12]-KF] ({Hexanoyl(5-Me)}-[dV]FV[dV][dP][Orn][d(aIle)][d(aThr)][d(aIle)][dV]F[Dhb]V; ester 8-C) | 0.143 µM | 3.49E−07 Molar | 2.03 µM | 0.0787 µM | 3.71E−07 Molar | 4.03 µM | 0.18 µM | 3.94E−07 Molar | 4.27 µM | 0.233 µM | 1.16E−06 Molar | 6.56 µM | 0.207 µM | 6.56 µM | 4.62E−07 Molar | 0.301 µM | 8.40E−07 Molar | 6.38 µM | 0.114 µM | 6.56 µM | TGI IGROV (IGROV-1): 3.10E−07 Molar; GI50 (HeLa): 0.259 µM; TGI HELA (HeLa): 9.25E−07 Molar; CC50 (HeLa): 5.69 µM; GI50 (LNCaP): 0.053 µM; TGI LN-caP (LNCaP): 3.00E−07 Molar; CC50 (LNCaP): 4.7 µM; TGI A-549 (A-549): 3.50E−07 Molar; GI50 (A-549): 0.157 µM; CC50 (A-549): 1.52 µM; GI50 (SK-MEL-28): 0.17 µM; TGI MEL-28 (SK-MEL-28): 3.36E−07 Molar; CC50 (SK-MEL-28): 0.748 µM; GI50 (DU-145): 0.18 µM; LC50 (concentration causing 50% net cell kill) (DU-145): 1.73 µM; TGI DU-145 (DU-145): 3.75E−07 Molar; TGI HT-29 (HT-29): 3.22E−07 Molar; GI50 (HT-29): 0.157 µM; CC50 (HT-29): 0.696 µM |
